The values that follow come from PubChem BioAssay AID1963831 (Molecular Pharmacology Branch, DTP, NCI, 2024).

Molecules are shown by their SMILES.
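Note: spheroids exposed to compounds for seven days.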
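Throughout, for viability, T/C: 100% = DMSO vehicle control viability.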

One test relates to 889142-216-R-J1-PDC complex spheroid viability. The experiment in a line: Anticancer human tumor 889142-216-R-J1-PDC patient-derived bladder carcinoma cell line growth inhibition [POLQ]. The note with it: curve of first compound; second compound 0.0316 µM. In outline: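 PDC + HUVEC + MSC complex spheroids; POLQ inhibitors ± partner drugs; top conc. at/near clinical Cmax, else 10 microM (SN-38 1 microM), half-log dilutions; 37 degrees C, 5% CO2.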
In general, IC50 refers to the midpoint of a concentration-inhibition curve. In the case of `C=CCn1c(=O)c2cnc(Nc3ccc(N4CCN(C)CC4)cc3)nc2n1-c1cccc(C(C)(C)O)n1` + Cc1cccc(N(C)C(=O)C2C(O)CCN2c2nc(C)cc(C(F)(F)F)c2C#N)c1, the IC50 is over 1000 nM.

For `CCCS(=O)(=O)Nc1ccc(F)c(C(=O)c2c[nH]c3ncc(-c4ccc(Cl)cc4)cc23)c1F` + Cc1cccc(N(C)C(=O)C2C(O)CCN2c2nc(C)cc(C(F)(F)F)c2C#N)c1, the IC50 is over 10000 nM.

`CNCc1ccc(-c2[nH]c3cc(F)cc4c3c2CCNC4=O)cc1` + Cc1cccc(N(C)C(=O)C2C(O)CCN2c2nc(C)cc(C(F)(F)F)c2C#N)c1: the IC50 is over 10000 nM.

As to `COc1cccc(OCCCN)c1-c1cc(Nc2cnc(C#N)cn2)n[nH]1` + Cc1cccc(N(C)C(=O)C2C(O)CCN2c2nc(C)cc(C(F)(F)F)c2C#N)c1, the IC50 worked out at 93.9 nM.

Staying with this test, now noted: curve of first compound; second compound 0.1 µM.
As to `C=CCn1c(=O)c2cnc(Nc3ccc(N4CCN(C)CC4)cc3)nc2n1-c1cccc(C(C)(C)O)n1` + Cc1cccc(N(C)C(=O)C2C(O)CCN2c2nc(C)cc(C(F)(F)F)c2C#N)c1, the IC50 was over 1000 nM.

Turning to `CCCS(=O)(=O)Nc1ccc(F)c(C(=O)c2c[nH]c3ncc(-c4ccc(Cl)cc4)cc23)c1F` + Cc1cccc(N(C)C(=O)C2C(O)CCN2c2nc(C)cc(C(F)(F)F)c2C#N)c1, the IC50 is over 10000 nM.

For `CNCc1ccc(-c2[nH]c3cc(F)cc4c3c2CCNC4=O)cc1` + Cc1cccc(N(C)C(=O)C2C(O)CCN2c2nc(C)cc(C(F)(F)F)c2C#N)c1, the IC50 was over 10000 nM.

For `COc1cccc(OCCCN)c1-c1cc(Nc2cnc(C#N)cn2)n[nH]1` + Cc1cccc(N(C)C(=O)C2C(O)CCN2c2nc(C)cc(C(F)(F)F)c2C#N)c1, the IC50 is 83 nM.

The same test, now with this note: curve of first compound; second compound 0.316 µM.
`C=CCn1c(=O)c2cnc(Nc3ccc(N4CCN(C)CC4)cc3)nc2n1-c1cccc(C(C)(C)O)n1` + Cc1cccc(N(C)C(=O)C2C(O)CCN2c2nc(C)cc(C(F)(F)F)c2C#N)c1: the IC50 was over 1000 nM.

For the compound `CCCS(=O)(=O)Nc1ccc(F)c(C(=O)c2c[nH]c3ncc(-c4ccc(Cl)cc4)cc23)c1F` + Cc1cccc(N(C)C(=O)C2C(O)CCN2c2nc(C)cc(C(F)(F)F)c2C#N)c1, the IC50 was over 10000 nM.

`CNCc1ccc(-c2[nH]c3cc(F)cc4c3c2CCNC4=O)cc1` + Cc1cccc(N(C)C(=O)C2C(O)CCN2c2nc(C)cc(C(F)(F)F)c2C#N)c1: the IC50 was over 10000 nM.

In the case of `COc1cccc(OCCCN)c1-c1cc(Nc2cnc(C#N)cn2)n[nH]1` + Cc1cccc(N(C)C(=O)C2C(O)CCN2c2nc(C)cc(C(F)(F)F)c2C#N)c1, the IC50 was determined as 29.2 nM.

Staying with this test, now noted: curve of first compound; second compound 1 µM.
For the compound `C=CCn1c(=O)c2cnc(Nc3ccc(N4CCN(C)CC4)cc3)nc2n1-c1cccc(C(C)(C)O)n1` + Cc1cccc(N(C)C(=O)C2C(O)CCN2c2nc(C)cc(C(F)(F)F)c2C#N)c1, the IC50 is over 1000 nM.

As to `CCCS(=O)(=O)Nc1ccc(F)c(C(=O)c2c[nH]c3ncc(-c4ccc(Cl)cc4)cc23)c1F` + Cc1cccc(N(C)C(=O)C2C(O)CCN2c2nc(C)cc(C(F)(F)F)c2C#N)c1, the IC50 is 9290 nM.

For `CNCc1ccc(-c2[nH]c3cc(F)cc4c3c2CCNC4=O)cc1` + Cc1cccc(N(C)C(=O)C2C(O)CCN2c2nc(C)cc(C(F)(F)F)c2C#N)c1, the IC50 was over 10000 nM.

Take `COc1cccc(OCCCN)c1-c1cc(Nc2cnc(C#N)cn2)n[nH]1` + Cc1cccc(N(C)C(=O)C2C(O)CCN2c2nc(C)cc(C(F)(F)F)c2C#N)c1: the IC50 stood at 35.6 nM.

Still in this test, the particulars now being: curve of first compound; second compound 3.16 µM.
Turning to `C=CCn1c(=O)c2cnc(Nc3ccc(N4CCN(C)CC4)cc3)nc2n1-c1cccc(C(C)(C)O)n1` + Cc1cccc(N(C)C(=O)C2C(O)CCN2c2nc(C)cc(C(F)(F)F)c2C#N)c1, the IC50 is over 1000 nM.

Regarding `CCCS(=O)(=O)Nc1ccc(F)c(C(=O)c2c[nH]c3ncc(-c4ccc(Cl)cc4)cc23)c1F` + Cc1cccc(N(C)C(=O)C2C(O)CCN2c2nc(C)cc(C(F)(F)F)c2C#N)c1, the IC50 amounted to 8820 nM.

Turning to `CNCc1ccc(-c2[nH]c3cc(F)cc4c3c2CCNC4=O)cc1` + Cc1cccc(N(C)C(=O)C2C(O)CCN2c2nc(C)cc(C(F)(F)F)c2C#N)c1, the IC50 is over 10000 nM.

Consider `COc1cccc(OCCCN)c1-c1cc(Nc2cnc(C#N)cn2)n[nH]1` + Cc1cccc(N(C)C(=O)C2C(O)CCN2c2nc(C)cc(C(F)(F)F)c2C#N)c1, for which the IC50 turned out to be 143 nM.

The same test, now with this note: curve of first compound; second compound 10 µM.
For `C=CCn1c(=O)c2cnc(Nc3ccc(N4CCN(C)CC4)cc3)nc2n1-c1cccc(C(C)(C)O)n1` + Cc1cccc(N(C)C(=O)C2C(O)CCN2c2nc(C)cc(C(F)(F)F)c2C#N)c1, the IC50 is over 1000 nM.

With `CCCS(=O)(=O)Nc1ccc(F)c(C(=O)c2c[nH]c3ncc(-c4ccc(Cl)cc4)cc23)c1F` + Cc1cccc(N(C)C(=O)C2C(O)CCN2c2nc(C)cc(C(F)(F)F)c2C#N)c1, the IC50 was found to be 6130 nM.

For the compound `CNCc1ccc(-c2[nH]c3cc(F)cc4c3c2CCNC4=O)cc1` + Cc1cccc(N(C)C(=O)C2C(O)CCN2c2nc(C)cc(C(F)(F)F)c2C#N)c1, the IC50 was over 10000 nM.

Take `COc1cccc(OCCCN)c1-c1cc(Nc2cnc(C#N)cn2)n[nH]1` + Cc1cccc(N(C)C(=O)C2C(O)CCN2c2nc(C)cc(C(F)(F)F)c2C#N)c1: the IC50 was 27.4 nM.

The same test, now with this note: second compound 0.0316 µM; first compound 0.00316 µM; stronger effect = lower value.
The viability, T/C is the result in the treated group divided by that in the control group, in per cent. Consider `C=CCn1c(=O)c2cnc(Nc3ccc(N4CCN(C)CC4)cc3)nc2n1-c1cccc(C(C)(C)O)n1` + Cc1cccc(N(C)C(=O)C2C(O)CCN2c2nc(C)cc(C(F)(F)F)c2C#N)c1, for which the viability, T/C is 113%.

As for `COc1cccc(OCCCN)c1-c1cc(Nc2cnc(C#N)cn2)n[nH]1` + Cc1cccc(N(C)C(=O)C2C(O)CCN2c2nc(C)cc(C(F)(F)F)c2C#N)c1, the viability, T/C was 94.4%.

The test is the same for the next values; noted with them: second compound 0.0316 µM; first compound 0.01 µM; stronger effect = lower value.
Regarding `C=CCn1c(=O)c2cnc(Nc3ccc(N4CCN(C)CC4)cc3)nc2n1-c1cccc(C(C)(C)O)n1` + Cc1cccc(N(C)C(=O)C2C(O)CCN2c2nc(C)cc(C(F)(F)F)c2C#N)c1, the viability, T/C was 93.8%.

Take `COc1cccc(OCCCN)c1-c1cc(Nc2cnc(C#N)cn2)n[nH]1` + Cc1cccc(N(C)C(=O)C2C(O)CCN2c2nc(C)cc(C(F)(F)F)c2C#N)c1: the viability, T/C is 65.8%.

Staying with this test, now noted: second compound 0.0316 µM; first compound 0.0316 µM; stronger effect = lower value.
In the case of `C=CCn1c(=O)c2cnc(Nc3ccc(N4CCN(C)CC4)cc3)nc2n1-c1cccc(C(C)(C)O)n1` + Cc1cccc(N(C)C(=O)C2C(O)CCN2c2nc(C)cc(C(F)(F)F)c2C#N)c1, the viability, T/C is 103%.

In the case of `CCCS(=O)(=O)Nc1ccc(F)c(C(=O)c2c[nH]c3ncc(-c4ccc(Cl)cc4)cc23)c1F` + Cc1cccc(N(C)C(=O)C2C(O)CCN2c2nc(C)cc(C(F)(F)F)c2C#N)c1, the viability, T/C was 100%.

As to `CNCc1ccc(-c2[nH]c3cc(F)cc4c3c2CCNC4=O)cc1` + Cc1cccc(N(C)C(=O)C2C(O)CCN2c2nc(C)cc(C(F)(F)F)c2C#N)c1, the viability, T/C was 110%.

In the case of `COc1cccc(OCCCN)c1-c1cc(Nc2cnc(C#N)cn2)n[nH]1` + Cc1cccc(N(C)C(=O)C2C(O)CCN2c2nc(C)cc(C(F)(F)F)c2C#N)c1, the viability, T/C was 53.7%.

The test is the same for the next values; noted with them: second compound 0.0316 µM; first compound 0.1 µM; stronger effect = lower value.
For the compound `C=CCn1c(=O)c2cnc(Nc3ccc(N4CCN(C)CC4)cc3)nc2n1-c1cccc(C(C)(C)O)n1` + Cc1cccc(N(C)C(=O)C2C(O)CCN2c2nc(C)cc(C(F)(F)F)c2C#N)c1, the viability, T/C was 101%.

On to `CCCS(=O)(=O)Nc1ccc(F)c(C(=O)c2c[nH]c3ncc(-c4ccc(Cl)cc4)cc23)c1F` + Cc1cccc(N(C)C(=O)C2C(O)CCN2c2nc(C)cc(C(F)(F)F)c2C#N)c1, for which the viability, T/C was 116%.

As to `CNCc1ccc(-c2[nH]c3cc(F)cc4c3c2CCNC4=O)cc1` + Cc1cccc(N(C)C(=O)C2C(O)CCN2c2nc(C)cc(C(F)(F)F)c2C#N)c1, the viability, T/C was 106%.

For the compound `COc1cccc(OCCCN)c1-c1cc(Nc2cnc(C#N)cn2)n[nH]1` + Cc1cccc(N(C)C(=O)C2C(O)CCN2c2nc(C)cc(C(F)(F)F)c2C#N)c1, the viability, T/C was 52.1%.

The test is the same for the next values; noted with them: second compound 0.0316 µM; first compound 0.316 µM; stronger effect = lower value.
As for `C=CCn1c(=O)c2cnc(Nc3ccc(N4CCN(C)CC4)cc3)nc2n1-c1cccc(C(C)(C)O)n1` + Cc1cccc(N(C)C(=O)C2C(O)CCN2c2nc(C)cc(C(F)(F)F)c2C#N)c1, the viability, T/C was 90%.

Turning to `CCCS(=O)(=O)Nc1ccc(F)c(C(=O)c2c[nH]c3ncc(-c4ccc(Cl)cc4)cc23)c1F` + Cc1cccc(N(C)C(=O)C2C(O)CCN2c2nc(C)cc(C(F)(F)F)c2C#N)c1, the viability, T/C was 98.7%.

For `CNCc1ccc(-c2[nH]c3cc(F)cc4c3c2CCNC4=O)cc1` + Cc1cccc(N(C)C(=O)C2C(O)CCN2c2nc(C)cc(C(F)(F)F)c2C#N)c1, the viability, T/C was 83.5%.

With `COc1cccc(OCCCN)c1-c1cc(Nc2cnc(C#N)cn2)n[nH]1` + Cc1cccc(N(C)C(=O)C2C(O)CCN2c2nc(C)cc(C(F)(F)F)c2C#N)c1, the viability, T/C was 49%.

The same test, now with this note: second compound 0.0316 µM; first compound 1 µM; stronger effect = lower value.
Consider `C=CCn1c(=O)c2cnc(Nc3ccc(N4CCN(C)CC4)cc3)nc2n1-c1cccc(C(C)(C)O)n1` + Cc1cccc(N(C)C(=O)C2C(O)CCN2c2nc(C)cc(C(F)(F)F)c2C#N)c1, for which the viability, T/C is 55.5%.

On to `CCCS(=O)(=O)Nc1ccc(F)c(C(=O)c2c[nH]c3ncc(-c4ccc(Cl)cc4)cc23)c1F` + Cc1cccc(N(C)C(=O)C2C(O)CCN2c2nc(C)cc(C(F)(F)F)c2C#N)c1, for which the viability, T/C is 105%.
